Reference: patent US10300048B2, “Thiazolidinones as cellular anandamide uptake inhibitors and their use in the treatment of psychiatric or neurological disorders and inflammation, in particular neuroinflammation” (UNIVERSITAT BERN, priority 2014, dated 2019)
Like-named read-outs stand apart in the source and are kept apart here.

Assays:
hCB1 receptor = hCB1 receptor (Homo sapiens (Human), UniProt P21554); assay: Radioligand CB receptor binding, [3H]-CP55,940 displacement on CHO-K1 hCB1 membranes; conditions: for CB1 receptor binding (%) at 10 µM: Table 4; for CB1 receptor binding % binding at 10 μM: Table 3
Description: Stably transfected CHO-K1 cells expressing hCB1 or hCB2 receptors (Gertsch et al., 2008, Proc Natl Acad Sci 105, 9099-104) were cultured in T150 cm^2 flasks up to 90% confluence. The medium was removed and cells were washed twice with PBS, 37° C. 10 mL of PBS was added and the cells were scraped and transferred into a falcon tube following homogenization by a Polytron PT1300D for 5 min at 30 krpm. Then, the homogenate was centrifuged (1400×g, 5 min) to remove debris. The supernatant was subjected to ultracentrifugation (64000×g, 45 min, 4° C.) to separate cytosolic from the membrane fraction. The supernatant was discharged and the pellet resuspended in PBS by sonication. Protein quantity was determined by BCA assay (Thermo Scientific) and aliquots of 500 μL were stored at −80° C. until use.
Radioligand CB Receptor Binding
Binding properties of ETI-T compounds to hCB1 or hCB2 receptors were performed as previously reported in a [^3H]-CP55,940 displacement assay (Gertsch et al., 2008, Proc Natl Acad Sci 105, 9099-104). WIN 55,212-2 was used as positive control. In brief, 20 μg protein of CHO-K1 hCB1 or hCB2 membrane preparations were thawed on ice and resuspended in a final volume of 500 μL binding buffer (50 mM Tris-HCl, 2.5 mM EDTA, 5 mM MgCl2, 0.5% fatty acid free BSA, pH 7.4) in silanized glass vials. [^3H]-CP55,940 (168 Ci/mmol) (PerkinElmer, Waltham, Mass., US) was added to a final concentration of 0.5 nM followed by the addition of competitors or vehicle in 5 μL DMSO. Membrane binding was equilibrated for 2 h at room temperature (25° C.). Samples were filter through a 0.1% polyethylenimine pre-soaked UniFilter®-96 GF/B plate (PerkinElmer) and washed twelve times with 167 μL ice-cold assay-buffer. The plate was dried, bottom sealed and 45 μL MicroScint 20 scintillation cocktail (PerkinElmer) were added before measured on a PerkinElmer 1450 Microbeta TRILUX liquid scintillation counter. Unspecific binding was determined by WIN 55,212-2, 10 μM and subtracted from all values. […].

[1] = test system: AEA cellular uptake, U937 cells; assay: [3H]-AEA cellular uptake inhibition in U937 cells; assay type: cell-based; conditions: for IC50: U937 cells
Description: [^3H]-AEA Cellular Uptake
Screening for AEA cellular uptake inhibition was performed in a semi-automated procedure: Pipetting and washing steps were performed by a Biomek3000 laboratory workstation. First, required amounts of U937 cells were centrifuged at 100×g for 5 min and resuspended in RPMI (37° C.) to a final concentration of 2×10^6 cells/mL. Then, 250 μL of cell suspension (0.5×10^6 cells per sample) were transferred into AquaSil™ silanized glass vials (Chromacol 1.1-MTV) in 96-well format. After addition of 5 μL vehicle (DMSO) or compounds the cells were incubated at 37° C. for 15 min. As positive controls OMDM-2 and UCM707 were used at 10 μM in each run. The ETI-T compounds were measured at up to 7 concentrations in triplicates from 100 pM-100 μM. After pre-incubation, a mixture of 0.5 nM[ethanolamine-1-^3H]-AEA, (60 Ci/mmol) and 99.5 nM of cold AEA (final 100 nM) was added and samples were incubated at 37° C. for another 15 min. The reaction was stopped by rapid filtration over UniFilter-96 GF/C filters (PerkinElmer) pre-soaked with PBS 0.25% BSA. Cells were washed three times with 100 μL ice-cold PBS buffer containing 1% fatty acid free BSA. After drying, 45 μL MicroScint 20 scintillation cocktail (PerkinElmer, Waltham, Mass., US) was added to the wells and the plate was sealed. Radioactivity was measured by liquid scintillation counting on a PerkinElmer Wallac Trilux MicroBeta 1450 during 2 min. Non-specific binding of [^3H]AEA (100 nM) to the glass vials was never higher than 10%. IC50 values were calculated by GraphPad® by non-linear regression using the built-in log(inhibitor) vs. response-variable slope (four parameters) function.
(§1) Statistical analysis and IC50 values were determined using GraphPad® Prism 5.0 (GraphPad® Software, San Diego, Calif., US). Inhibition curves were obtained by non-linear regression using the built-in log(inhibitor) vs. response-variable slope (four parameters) function. Results were calculated as % of vehicle control of the corresponding fraction (cells, aqueous phase) if not mentioned else. In vivo results are shown in absolute values and were analyzed by a one-way ANOVA following a Tukey's multiple comparison test or student's t-test. If not indicated else the results were compared vs. vehicle (CTRL). *** P<0.001, ** P<0.01, * P<0.05, ns=not significant P>0.05.

FAAH = FAAH (Homo sapiens (Human), UniProt O00519); assay: FAAH activity: hydrolysis of [3H]-AEA in U937 cell homogenates; assay type: biochemical; conditions: for IC50: U937 cell homogenate, read-out: FAAH inhibition IC50
Description: Hydrolysis of [^3H]-AEA by FAAH was determined as previously described in cell homogenates of U937 cells (0.18 mg protein) (Omeir et al., 1999, Biochem Biophys Res Commun, 264, 316-20; Mor et al., 2004, J Med Chem, 47, 4998-5008). Protein amounts of cell homogenates corresponded to 0.5×10^6 cells (U937), to assure best possible comparability of IC50 values as used for the AEA cellular uptake assays. URB597 was used as positive control. Protein quantification was performed using a BCA assay (Thermo Scientific). Enzyme activity was assessed by addition of vehicle or compounds in 10 μL DMSO to 490 μL homogenate in 10 mM Tris HCl, 1 mM EDTA, 0.1% (w/v) BSA fatty acid free, pH=8 and incubation for 15 min at 37° C. After, a mixture of AEA plus [ethanolamine-1-^3H]-AEA (0.5 nM) at final 100 nM was added to the homogenates and incubated for 15 min at 37° C. The reaction was stopped by addition of 1 mL ice-cold CHCl3:MeOH (1:1) followed by vigorous vortexing. Phase separation was achieved by centrifugation at 10′000×g at 4° C. for 10 min. Radioactivity of the separated aqueous phase (upper phase) containing [^3H-ethanolamine] or [^3H-glycerol] was measured by liquid scintillation counting on a Tri-Carb 2100 TR liquid scintillation analyzer after addition of 3.5 mL Ultima Gold scintillation cocktail (PerkinElmer Life Sciences). Results are expressed as hydrolysis of tritium substrate in percent of vehicle treated control. IC50 values were calculated by GraphPad®. Data are reported as means of n=3 independent experiments performed in triplicates.
as §1

[2] = Homo sapiens, U-937, Table 1, 100 nM AEA, read-out: AEA uptake inhibition IC50
[3] = Homo sapiens, U-937, Table 4, read-out: AEA uptake IC50

Sequence of FAAH (O00519 whole entry): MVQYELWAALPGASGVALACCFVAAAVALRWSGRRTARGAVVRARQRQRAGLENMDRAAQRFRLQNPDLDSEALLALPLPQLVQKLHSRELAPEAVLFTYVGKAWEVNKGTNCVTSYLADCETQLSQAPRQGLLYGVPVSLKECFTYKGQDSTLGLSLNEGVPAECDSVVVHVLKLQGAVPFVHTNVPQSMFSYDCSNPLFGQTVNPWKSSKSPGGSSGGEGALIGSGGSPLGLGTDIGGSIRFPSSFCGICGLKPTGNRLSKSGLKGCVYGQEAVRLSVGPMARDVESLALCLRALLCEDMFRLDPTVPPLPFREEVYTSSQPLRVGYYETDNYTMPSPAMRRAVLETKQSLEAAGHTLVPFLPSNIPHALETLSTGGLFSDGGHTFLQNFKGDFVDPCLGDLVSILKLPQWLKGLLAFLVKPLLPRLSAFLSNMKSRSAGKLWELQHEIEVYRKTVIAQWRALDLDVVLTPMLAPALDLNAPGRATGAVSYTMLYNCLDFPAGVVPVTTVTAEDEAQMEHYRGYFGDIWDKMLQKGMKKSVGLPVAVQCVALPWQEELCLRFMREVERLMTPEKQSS
Sequence of hCB1 receptor (P21554 whole entry): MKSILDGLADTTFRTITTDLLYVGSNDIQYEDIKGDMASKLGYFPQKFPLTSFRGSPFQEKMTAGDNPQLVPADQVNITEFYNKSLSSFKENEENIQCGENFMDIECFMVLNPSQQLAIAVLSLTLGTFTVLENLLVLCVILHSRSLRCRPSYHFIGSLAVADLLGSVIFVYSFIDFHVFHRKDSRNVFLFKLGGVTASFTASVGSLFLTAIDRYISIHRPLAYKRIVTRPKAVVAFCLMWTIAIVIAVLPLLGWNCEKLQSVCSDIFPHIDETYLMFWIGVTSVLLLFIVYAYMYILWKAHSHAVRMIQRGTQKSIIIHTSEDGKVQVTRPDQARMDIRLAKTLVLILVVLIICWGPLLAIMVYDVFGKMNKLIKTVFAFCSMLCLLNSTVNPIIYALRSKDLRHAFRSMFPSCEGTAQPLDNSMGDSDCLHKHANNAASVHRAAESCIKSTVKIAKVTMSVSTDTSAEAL

Row | SMILES | CB1 receptor binding (%) at 10 µM (hCB1 receptor) [%] | IC50 [1, 2] [nM] | IC50 [1, 3] [nM] | also measured
1 | Cc1ccc(/N=C2\S/C(=C\c3ccc(O)cc3)C(=O)N2c2ccc(C)cc2)cc1 [Compound 1] | 33 | 68 | 68 | –
2 | CCOc1cc(/C=C2\S/C(=N\c3ccc(F)cc3)N(c3ccc(F)cc3)C2=O)ccc1O [Compound 2] | 33 | 74 | 74 | FAAH inhibition (in words) (FAAH): Lack of FAAH inhibition; IC50 (FAAH; Table 2): 56200 nM; IC50 (FAAH; Table 4): 56200 nM; CB1 receptor binding % binding at 10 μM (hCB1 receptor): 33%; apparent selectivity for AEA uptake inhibition over FAAH inhibition ([1]; ratio of FAAH IC50 to AEA uptake IC50): ~760 fold
3 | CCOc1cc(/C=C2\S/C(=N\c3cc(Cl)ccc3C)NC2=O)ccc1O [Compound 3] | – | – | – | IC50 ([1]; Table 1, 100 nM AEA, read-out: AEA uptake inhibition IC50): 138 nM
4 | C=CCCc1cc(/C=C2\SC(=NCC)N(CC)C2=O)cc(OCC)c1O [Compound 4] | – | 145 | 145 | –
5 | C#CCOc1ccc(/C=C2\S/C(=N\c3ccc(OC)cc3)N(CCc3c[nH]c4ccccc34)C2=O)cc1 [Compound 7] | – | 266 | 266 | –
6 | CCN1C(=O)/C(=C/c2ccc(O)cc2)S/C1=N\c1ccc(F)cc1 [Compound 8] | – | 268 | 268 | –
7 | CCN1C(=O)/C(=C/c2ccc(C)cc2)S/C1=N\c1ccc(OC)cc1 [Compound 9] | – | 334 | 334 | –
8 | CCCN1C(=O)/C(=C/c2ccc(N(C)C)cc2)S/C1=N\c1ccccc1 [Compound 10] | 29 | 355 | 355 | IC50 (FAAH; Table 4): 1050 nM
9 | O=C1/C(=C/c2ccc(O)cc2)S/C(=N\c2ccccc2)N1Cc1ccco1 [Compound 11] | – | 434 | 434 | –
10 | CCOc1cc(/C=C2\S/C(=N\c3ccc(C)cc3)N(c3ccc(C)cc3)C2=O)ccc1O [Compound 12] | 35 | 484 | 484 | IC50 (FAAH; Table 2): > 100000 nM; CB1 receptor binding % binding at 10 μM (hCB1 receptor): 35%
11 | Cc1ccsc1/C=C1\S/C(=N\c2ccccc2)N(C(C)C)C1=O [Compound 13] | – | 510 | 510 | –
12 | COc1ccc(/C=C2\S/C(=N\c3ccccc3)N(c3ccccc3)C2=O)cc1 [Compound 14] | – | 542 | 542 | –
13 | CCCOc1cc(/C=C2\S/C(=N\c3ccccc3C)N(c3ccccc3C)C2=O)ccc1O [Compound 15] | – | 553 | 553 | –
14 | C=CCc1cc(/C=C2\S/C(=N\c3ccc(C(=O)OC)cc3)N(C)C2=O)cc(OCC)c1O [Compound 16] | 15 | 571 | 571 | IC50 (FAAH; Table 2): > 100000 nM; CB1 receptor binding % binding at 10 μM (hCB1 receptor): 15%
15 | CCN1C(=O)/C(=C/c2cc(I)c(O)c(OC)c2)S/C1=N\c1ccccc1 [Compound 17] | – | 594 | 594 | –
16 | COc1ccc(/N=C2\S/C(=C\c3ccc(O)cc3)C(=O)N2c2ccc(OC)cc2)cc1 [Compound 18] | – | 597 | 597 | –

Row | SMILES | CB1 receptor binding (%) at 10 µM (hCB1 receptor) [%] | IC50 [1, 2] [nM] | IC50 [1, 3] [nM] | also measured
17 | COc1ccc(/C=C2\S/C(=N\c3ccc(C)cc3)N(c3ccc(C)cc3)C2=O)cc1 [Compound 19] | – | 602 | 602 | –
18 | C=CCc1cc(/C=C2\S/C(=N\c3ccccc3)N(Cc3ccco3)C2=O)cc(OC)c1O [Compound 20] | – | 661 | 661 | –
19 | Cc1ccc(/N=C2\S/C(=C\c3ccc(O)c(Cl)c3)C(=O)N2c2ccc(C)c(Cl)c2)cc1Cl [Compound 21] | 45 | 798 | 798 | IC50 (FAAH; Table 4): 58900 nM
20 | C/C=C/c1cc(/C=C2\S/C(=N\c3ccccc3)N(CCOC)C2=O)cc(OCC)c1O [Compound 22] | 34 | 899 | 899 | IC50 (FAAH; Table 4): > 100000 nM
21 | COc1cc(/C=C2\S/C(=N\c3ccc(C)cc3)N(c3ccc(C)cc3)C2=O)ccc1O [ETI-T-008 Jspg] | – | – | 1250 | IC50 (FAAH; Table 4): 5370 nM
22 | COc1ccc(C=C2SC(=Nc3ccc(F)cc3)N(c3ccc(F)cc3)C2=O)cc1OC [ETI-T-343] | – | – | 1590 | –
23 | CN(C)c1ccc(/C=C2\S/C(=N\c3ccccc3)N(C3CCCCC3)C2=O)cc1 [ETI-T-385] | 40 | – | 1080 | IC50 (FAAH; Table 4): 985 nM
24 | C=CCc1cc(/C=C2/S/C(=N/c3ccc(C)cc3)N(C)C2=O)cc(OCC)c1O [ETI-T-399] | 41 | – | 1320 | –
25 | CCCCN1C(=O)/C(=C/c2cc(Br)c(O)c(OCC)c2)S/C1=N\c1ccccc1 [ETI-T-401] | 42 | – | 1580 | –
26 | CCOc1cc(/C=C2\S/C(=N\c3ccccc3)N(CCOC)C2=O)ccc1O [ETI-T-410] | – | – | 1300 | –
27 | CCCN1C(=O)/C(=C/c2ccc3c(c2)OCO3)S/C1=N\c1ccc(OC)cc1 [ETI-T-426] | 60 | – | 1460 | –
28 | CCOc1cc(/C=C2/S/C(=N\c3ccc(C)c(Cl)c3)N(c3ccc(C)c(Cl)c3)C2=O)ccc1O [ETI-T-435] | – | – | 1430 | –
29 | CCOc1cc(/C=C2/S/C(=N/c3ccc(F)cc3)N(c3ccc(F)cc3)C2=O)ccc1O [ETI-T-438] | – | – | 1350 | –
30 | Cc1ccc(/N=C2\S/C(=C\c3ccc(O)c(Cl)c3)C(=O)N2c2ccc(C)cc2)cc1 [ETI-T-444] | – | – | 1150 | –
31 | CCOc1cc(/C=C2/S/C(=N/c3ccc(OC)cc3)N(c3ccc(OC)cc3)C2=O)ccc1O [ETI-T-445] | – | – | 1050 | –
